Laboratory results taken from US20140045744A1, “CULTURED COLLECTION OF GUT MICROBIAL COMMUNITY” (THE WASHINGTON UNIVERSITY, priority 2011, published 2014).

Test system: E. coli MegaX DH10B T1R cells
Assay type: cell-based, Escherichia coli
Conditions: for MIC: antibiotics used in functional metagenomic selections of E. coli libraries
Description: To compare further the functions represented in the complete and cultured microbiota independent of annotation, antibiotic-resistance genes were captured from their microbiomes in expression vectors in Escherichia coli. Each E. coli library contained ˜1 GB of 1.5- to 4-kB fragments of microbiome DNA subcloned into an expression vector and was screened against a panel of 15 antibiotics and clinically relevant antibiotic combinations (Table 3). Genes encoding resistance to the same 14 antibiotics were captured in libraries prepared from complete and cultured fecal samples (FIG. 3G and Table 4). In one example, a screen for DNA fragments that confer resistance to the aminoglycoside amikacin produced candidate genes from the microbiomes of both complete and cultured microbial communities from Donor 1 but not from Donor 2. Two genes conferring amikacin resistance (either the 16S rRNA methylase rmtD or the aminoglycoside phosphotransferase aphA-3) were identified in 70% of the DNA fragments captured in selections for this phenotype.
DNA fragments from complete and cultured communities were cloned into an expression vector, electroporated into Escherichia coli, and screened for their ability to confer resistance to 15 different antibiotics. To this end, 10 μg of DNA purified from the two human donors' fecal microbiota, from the derived cultured communities, plus pooled contents of the arrayed strain collection were sheared to 1.5- to 4-kB fragments (Bioruptor XL), followed by size selection (1% agarose gel electrophoresis). Sheared DNA then was endrepaired (Epicentre Endlt Kit), column-purified (Qiagen Qia-Quick PCR Purification Kit), and concentrated in a vacuum evaporator (SpeedVac). […] Approximately 500 ng of the DNA fragments were ligated to 100 ng of the linearized vector in an overnight ligation reaction (Epicentre FastLink Ligation Kit). The ligation reaction was desalted by dialysis in double-distilled H2O and electroporated into E. coli MegaX DH10B T1R cells (Invitrogen). After 1 h of recovery, a small (1 μL) aliquot of the library was titered with serial dilutions onto LB agar plates containing 50 μg/mL kanamycin (to select for pZE21 transformants) and incubated at 37° C. for 16 h. The insert size distribution for each library was characterized by gel electrophoresis of amplicons obtained using primers flanking the HincII site in the multiple cloning site of pZE21 MCS1. The total size of each library was estimated by multiplying average insert size by the number of cfu in a given library. The remainder of the recovered cells was inoculated into 10 mL LB containing 50 μg/mL kanamycin and grown overnight, with shaking, at 27° C. for ˜16 h. The culture subsequently was diluted with an equal volume of LB medium containing 30% glycerol and stored at −80° C. before screening.
For functional selections, 100 μL of each library freezer stock (corresponding to 0.5-1×10^8 cfu) was plated on an LB agar plate containing kanamycin (50 μg/mL) plus one of 15 different antibiotics (Table 3). The total number of cells plated on each antibiotic represented ˜10 copies of each original unique transformant. Antibiotic-resistant colonies were scored after plates had been incubated at 37° C. for 16 h. Inserts contained in colonies with amikacin-, piperacillin- and piperacillin/tazobactam-resistant phenotypes were subjected to bidirectional Sanger sequencing (Beckman Coulter Genomics) using primers pZE21—81—104—57C (5′-[…] GGT-3′; SEQ ID NO 5) and pZE21—151—174rc—58C (5′-[…]-3′; SEQ ID NO 6). Resulting reads were trimmed to remove low-quality and vector sequences and subjected to within-library contig assembly (≧200 bp of 97% ID sequence required). Contigs and unassembled reads were mapped by BLAST to the National Center for Biotechnology Information (NCBI) nonredundant database and to a custom database of 122human gutmicrobial genomes. All sequence datasets have been deposited in the NCBI Sequence Read Archive (SRA) under accession no. […]

Row | Molecule | MIC | further results
1 | O=C(N[C@H](CO)[C@H](O)c1ccc([N+](=O)[O-])cc1)C(Cl)Cl [Cloramphenicol] | 8000 µg/mL | –
2 | CN(C)[C@@H]1C(O)=C(C(N)=O)C(=O)[C@@]2(O)C(O)=C3C(=O)c4c(O)cccc4[C@@](C)(O)[C@H]3[C@H](O)[C@@H]12 [Oxytetracyline] | 8000 µg/mL | –
3 | CN(C)[C@@H]1C(=O)C(C(N)=O)=C(O)[C@@]2(O)C(=O)C3=C(O)c4c(O)cccc4[C@@](C)(O)[C@H]3C[C@@H]12 [Tetracyline] | 8000 µg/mL | –
4 | Gentamicin | 16000 µg/mL | –
5 | Penicillin | 128000 µg/mL | –
6 | Piperacillin + Tazobactam | – | MIC (mg/mL), PI of PI + TZ (piperacillin part of the combination): 16 mg/mL; MIC (mg/mL), TZ of PI + TZ (tazobactam part of the combination): 4 mg/mL
7 | Trimethoprim + Sulfamethoxazole | – | MIC (mg/mL), SX of TR + SX (sulfamethoxazole part of the combination): 38 mg/mL; MIC (mg/mL), TR of TR + SX (trimethoprim part of the combination): 2 mg/mL
